Consider three compounds from ChEMBL document CHEMBL5653631, “A Potent and Selective ULK1 Inhibitor Suppresses Autophagy and Sensitizes Cancer Cells to Nutrient Stress” (iScience, 2018).

For experiment [1], the target named is Mitogen-activated protein kinase 10 (Homo sapiens) (UniProt P53779). As to the kind of experiment: Inhibition of human recombinant JNK3 at 40 nM in presence of ATP by radiometric assay relative to control.
Experiment [2] addresses Maternal embryonic leucine zipper kinase (Homo sapiens) (UniProt Q14680). The experiment in a line: Inhibition of human recombinant MELK at 40 nM in presence of ATP by radiometric assay relative to control.
Experiment [3] has as its target Serine/threonine-protein kinase pim-1 (Homo sapiens) (UniProt P11309). The experiment in a line: Inhibition of human recombinant PIM1 at 40 nM in presence of ATP by radiometric assay relative to control.
The target of experiment [4] is Ribosomal protein S6 kinase alpha-3 (Homo sapiens) (UniProt P51812). The experiment in a line: Inhibition of human recombinant RSK2 at 40 nM in presence of ATP by radiometric assay relative to control.
The target in experiment [5] is T1, Serine/threonine-protein kinase Sgk1 (Homo sapiens) (UniProt O00141).
T1 sequence (whole entry): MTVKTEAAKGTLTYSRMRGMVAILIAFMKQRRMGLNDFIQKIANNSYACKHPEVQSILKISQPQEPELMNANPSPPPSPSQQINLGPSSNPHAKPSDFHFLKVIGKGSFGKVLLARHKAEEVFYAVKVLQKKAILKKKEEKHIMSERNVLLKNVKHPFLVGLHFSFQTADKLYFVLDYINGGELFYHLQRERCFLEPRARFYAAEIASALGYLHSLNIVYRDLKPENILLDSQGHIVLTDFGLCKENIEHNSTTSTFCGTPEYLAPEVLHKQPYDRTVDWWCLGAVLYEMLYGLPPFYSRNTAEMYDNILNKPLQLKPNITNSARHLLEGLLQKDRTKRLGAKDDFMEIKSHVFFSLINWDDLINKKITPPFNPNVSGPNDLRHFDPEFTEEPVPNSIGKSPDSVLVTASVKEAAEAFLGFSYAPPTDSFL
The experiment in a line: Inhibition of human recombinant SGK1 at 40 nM related to control ULK1.

In experiment [6] the target is Tyrosine-protein kinase Tec (Homo sapiens) (UniProt P42680). As to the kind of experiment: Inhibition of human recombinant TEC at 40 nM related to control ULK1.
Experiment [7] has as its target T2, Mitogen-activated protein kinase kinase kinase 3 (Homo sapiens) (UniProt Q99759).
T2 sequence (whole entry): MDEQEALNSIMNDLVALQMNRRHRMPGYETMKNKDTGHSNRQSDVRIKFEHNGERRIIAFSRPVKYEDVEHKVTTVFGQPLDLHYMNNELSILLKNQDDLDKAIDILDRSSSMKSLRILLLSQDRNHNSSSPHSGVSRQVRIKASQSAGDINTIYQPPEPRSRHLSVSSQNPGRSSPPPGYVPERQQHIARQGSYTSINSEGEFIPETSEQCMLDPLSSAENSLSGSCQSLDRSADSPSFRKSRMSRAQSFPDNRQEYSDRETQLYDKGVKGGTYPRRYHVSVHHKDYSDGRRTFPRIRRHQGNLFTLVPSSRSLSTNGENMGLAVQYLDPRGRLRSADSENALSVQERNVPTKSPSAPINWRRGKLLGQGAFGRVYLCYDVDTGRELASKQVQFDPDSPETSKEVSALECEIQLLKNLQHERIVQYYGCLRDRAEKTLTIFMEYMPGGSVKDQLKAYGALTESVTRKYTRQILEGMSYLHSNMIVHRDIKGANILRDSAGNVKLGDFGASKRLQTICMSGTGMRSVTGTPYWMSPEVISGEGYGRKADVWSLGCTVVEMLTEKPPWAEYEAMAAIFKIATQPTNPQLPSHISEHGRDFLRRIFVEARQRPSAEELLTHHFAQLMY
As to the kind of experiment: Inhibition of human recombinant MAP3K3 at 500 nM in presence of ATP by radiometric assay relative to control.

For experiment [8], the target named is Serine/threonine-protein kinase PAK 6 (Homo sapiens) (UniProt Q9NQU5). The experiment in a line: Inhibition of human recombinant PAK6 at 500 nM related to control ULK1.
For experiment [9], the target named is T3, Ephrin type-B receptor 4 (Homo sapiens) (UniProt P54760).
T3 sequence (whole entry): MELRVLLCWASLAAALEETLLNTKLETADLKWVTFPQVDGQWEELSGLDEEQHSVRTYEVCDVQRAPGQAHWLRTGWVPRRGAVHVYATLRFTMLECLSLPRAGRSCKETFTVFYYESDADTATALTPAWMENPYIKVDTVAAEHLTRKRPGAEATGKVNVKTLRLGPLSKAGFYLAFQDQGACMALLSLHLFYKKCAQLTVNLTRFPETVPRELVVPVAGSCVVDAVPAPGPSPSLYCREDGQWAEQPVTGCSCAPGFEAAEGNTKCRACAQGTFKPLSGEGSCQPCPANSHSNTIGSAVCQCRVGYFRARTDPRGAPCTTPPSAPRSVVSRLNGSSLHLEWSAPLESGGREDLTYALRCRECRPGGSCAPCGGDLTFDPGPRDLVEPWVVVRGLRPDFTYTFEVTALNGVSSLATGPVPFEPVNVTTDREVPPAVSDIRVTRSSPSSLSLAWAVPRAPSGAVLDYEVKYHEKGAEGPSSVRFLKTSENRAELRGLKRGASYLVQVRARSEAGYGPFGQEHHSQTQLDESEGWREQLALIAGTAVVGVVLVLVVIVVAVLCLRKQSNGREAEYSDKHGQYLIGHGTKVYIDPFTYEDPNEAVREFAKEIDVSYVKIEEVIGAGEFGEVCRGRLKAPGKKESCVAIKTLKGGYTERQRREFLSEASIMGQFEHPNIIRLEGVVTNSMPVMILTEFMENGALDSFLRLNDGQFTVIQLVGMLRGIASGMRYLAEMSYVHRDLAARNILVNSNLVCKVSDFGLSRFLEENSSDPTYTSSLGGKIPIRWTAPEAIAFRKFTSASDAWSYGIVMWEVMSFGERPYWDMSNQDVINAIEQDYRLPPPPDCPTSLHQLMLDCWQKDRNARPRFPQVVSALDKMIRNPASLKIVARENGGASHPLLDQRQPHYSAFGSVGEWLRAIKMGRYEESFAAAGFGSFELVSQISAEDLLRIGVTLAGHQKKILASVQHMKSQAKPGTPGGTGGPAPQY
The experiment in a line: Inhibition of human recombinant EphB4 at 15 nM in presence of ATP by radiometric assay relative to control.

In experiment [10] the target is Mitogen-activated protein kinase kinase kinase kinase 4 (Homo sapiens) (UniProt O95819). The experiment in a line: Inhibition of human recombinant HGK at 15 nM in presence of ATP by radiometric assay relative to control.
Experiment [11] addresses Serine/threonine-protein kinase tousled-like 2 (Homo sapiens) (UniProt Q86UE8). As to the kind of experiment: Inhibition of human recombinant TLK2 at 15 nM in presence of ATP by radiometric assay relative to control.
The species entered for experiment [12] is Homo sapiens. The experiment in a line: Inhibition of human recombinant CK1d at 15 nM related to control ULK1.

The structures appear in SMILES notation.

Sequence of Serine/threonine-protein kinase tousled-like 2 (Homo sapiens) (Q86UE8 whole entry, looked up): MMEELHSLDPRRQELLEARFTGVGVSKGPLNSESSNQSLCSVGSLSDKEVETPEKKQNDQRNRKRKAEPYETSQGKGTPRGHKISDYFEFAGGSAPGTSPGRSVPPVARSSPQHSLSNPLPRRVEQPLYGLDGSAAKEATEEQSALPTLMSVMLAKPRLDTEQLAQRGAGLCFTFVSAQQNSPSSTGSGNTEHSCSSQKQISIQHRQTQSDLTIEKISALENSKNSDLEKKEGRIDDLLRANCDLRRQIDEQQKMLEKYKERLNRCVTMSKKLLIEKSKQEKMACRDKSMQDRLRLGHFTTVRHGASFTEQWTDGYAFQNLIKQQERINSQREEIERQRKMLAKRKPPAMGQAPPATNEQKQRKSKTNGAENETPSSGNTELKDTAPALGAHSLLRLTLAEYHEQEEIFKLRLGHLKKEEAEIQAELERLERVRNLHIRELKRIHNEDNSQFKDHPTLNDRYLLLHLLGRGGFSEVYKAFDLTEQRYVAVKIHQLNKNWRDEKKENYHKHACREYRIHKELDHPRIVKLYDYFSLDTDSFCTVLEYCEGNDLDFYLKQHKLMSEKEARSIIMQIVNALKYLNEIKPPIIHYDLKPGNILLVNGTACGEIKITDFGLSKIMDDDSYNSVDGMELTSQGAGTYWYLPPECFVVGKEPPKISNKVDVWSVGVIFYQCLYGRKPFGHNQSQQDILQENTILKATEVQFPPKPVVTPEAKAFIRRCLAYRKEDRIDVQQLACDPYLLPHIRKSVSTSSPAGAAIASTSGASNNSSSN
Sequence of Serine/threonine-protein kinase pim-1 (Homo sapiens) (P11309 whole entry, looked up): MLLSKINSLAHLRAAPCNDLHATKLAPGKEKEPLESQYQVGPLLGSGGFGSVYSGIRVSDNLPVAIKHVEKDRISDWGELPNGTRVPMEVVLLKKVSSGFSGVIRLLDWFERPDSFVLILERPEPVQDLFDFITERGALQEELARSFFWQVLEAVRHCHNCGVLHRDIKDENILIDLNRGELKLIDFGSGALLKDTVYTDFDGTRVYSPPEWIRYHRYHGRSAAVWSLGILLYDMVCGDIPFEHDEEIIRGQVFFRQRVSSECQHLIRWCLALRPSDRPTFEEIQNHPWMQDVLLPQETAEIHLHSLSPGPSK
Sequence of Mitogen-activated protein kinase 10 (Homo sapiens) (P53779 whole entry): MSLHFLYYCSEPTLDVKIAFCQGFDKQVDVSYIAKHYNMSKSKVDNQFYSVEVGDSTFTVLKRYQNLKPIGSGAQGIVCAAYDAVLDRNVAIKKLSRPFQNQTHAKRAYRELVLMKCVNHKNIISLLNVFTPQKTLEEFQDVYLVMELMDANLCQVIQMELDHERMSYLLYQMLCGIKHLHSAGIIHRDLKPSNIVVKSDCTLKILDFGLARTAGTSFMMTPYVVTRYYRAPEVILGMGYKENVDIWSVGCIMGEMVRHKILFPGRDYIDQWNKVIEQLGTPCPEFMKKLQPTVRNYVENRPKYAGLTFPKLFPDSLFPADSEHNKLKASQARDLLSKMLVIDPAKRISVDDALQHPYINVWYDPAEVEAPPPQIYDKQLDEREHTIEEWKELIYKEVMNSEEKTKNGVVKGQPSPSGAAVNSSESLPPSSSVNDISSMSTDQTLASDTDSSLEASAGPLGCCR
Sequence of Tyrosine-protein kinase Tec (Homo sapiens) (P42680 whole entry, looked up): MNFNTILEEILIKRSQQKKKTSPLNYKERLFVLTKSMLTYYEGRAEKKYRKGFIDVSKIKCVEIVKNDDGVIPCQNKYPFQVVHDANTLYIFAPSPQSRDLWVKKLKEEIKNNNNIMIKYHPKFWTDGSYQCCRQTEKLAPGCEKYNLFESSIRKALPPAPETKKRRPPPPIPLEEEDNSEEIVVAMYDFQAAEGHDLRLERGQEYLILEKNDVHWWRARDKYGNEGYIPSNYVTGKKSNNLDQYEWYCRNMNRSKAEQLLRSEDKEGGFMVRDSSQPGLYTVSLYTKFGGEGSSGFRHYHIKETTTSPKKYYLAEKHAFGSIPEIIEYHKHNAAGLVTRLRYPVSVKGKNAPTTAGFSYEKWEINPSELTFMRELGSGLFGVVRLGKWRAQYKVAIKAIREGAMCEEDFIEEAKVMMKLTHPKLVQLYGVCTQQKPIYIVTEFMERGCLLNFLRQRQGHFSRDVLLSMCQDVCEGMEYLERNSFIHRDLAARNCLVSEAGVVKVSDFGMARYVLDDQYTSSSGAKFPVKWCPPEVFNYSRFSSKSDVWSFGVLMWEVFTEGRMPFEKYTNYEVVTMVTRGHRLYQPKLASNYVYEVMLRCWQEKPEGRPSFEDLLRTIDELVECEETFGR
Sequence of Maternal embryonic leucine zipper kinase (Homo sapiens) (Q14680 whole entry, looked up): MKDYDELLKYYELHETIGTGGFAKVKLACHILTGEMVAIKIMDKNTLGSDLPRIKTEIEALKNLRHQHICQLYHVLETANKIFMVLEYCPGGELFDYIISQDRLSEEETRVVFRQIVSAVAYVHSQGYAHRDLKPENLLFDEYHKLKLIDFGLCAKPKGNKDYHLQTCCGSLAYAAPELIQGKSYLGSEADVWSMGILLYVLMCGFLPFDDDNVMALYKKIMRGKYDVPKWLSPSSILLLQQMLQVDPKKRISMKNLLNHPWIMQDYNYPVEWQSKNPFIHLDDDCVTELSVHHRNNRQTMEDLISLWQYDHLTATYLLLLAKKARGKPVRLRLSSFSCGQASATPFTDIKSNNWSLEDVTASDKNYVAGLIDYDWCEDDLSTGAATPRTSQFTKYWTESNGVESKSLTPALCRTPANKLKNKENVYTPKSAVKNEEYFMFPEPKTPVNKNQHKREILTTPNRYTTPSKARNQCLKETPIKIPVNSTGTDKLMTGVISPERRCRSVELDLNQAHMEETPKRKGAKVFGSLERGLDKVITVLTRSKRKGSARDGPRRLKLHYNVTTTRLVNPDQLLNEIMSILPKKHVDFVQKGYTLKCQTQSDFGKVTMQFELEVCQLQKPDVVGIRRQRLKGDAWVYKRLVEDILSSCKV
Sequence of Serine/threonine-protein kinase PAK 6 (Homo sapiens) (Q9NQU5 whole entry, looked up): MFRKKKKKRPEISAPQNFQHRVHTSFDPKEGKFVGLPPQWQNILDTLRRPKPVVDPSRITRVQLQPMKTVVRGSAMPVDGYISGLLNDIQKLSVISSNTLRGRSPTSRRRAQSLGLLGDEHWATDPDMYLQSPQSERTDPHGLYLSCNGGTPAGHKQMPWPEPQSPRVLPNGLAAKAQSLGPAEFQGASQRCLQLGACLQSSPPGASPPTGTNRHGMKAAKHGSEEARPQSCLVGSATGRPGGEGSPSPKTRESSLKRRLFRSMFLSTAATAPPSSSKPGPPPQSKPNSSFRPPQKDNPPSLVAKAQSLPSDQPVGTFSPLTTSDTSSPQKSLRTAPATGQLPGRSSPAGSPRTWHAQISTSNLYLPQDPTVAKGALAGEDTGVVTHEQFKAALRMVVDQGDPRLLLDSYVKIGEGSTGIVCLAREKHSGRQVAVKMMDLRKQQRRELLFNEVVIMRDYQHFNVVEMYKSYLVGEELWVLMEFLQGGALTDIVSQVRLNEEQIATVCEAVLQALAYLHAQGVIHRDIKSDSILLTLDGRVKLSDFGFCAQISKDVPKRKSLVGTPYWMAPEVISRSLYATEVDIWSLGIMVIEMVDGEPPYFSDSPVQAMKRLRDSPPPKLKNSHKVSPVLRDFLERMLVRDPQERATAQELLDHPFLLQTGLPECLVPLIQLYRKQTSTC
Sequence of Ribosomal protein S6 kinase alpha-3 (Homo sapiens) (P51812 whole entry): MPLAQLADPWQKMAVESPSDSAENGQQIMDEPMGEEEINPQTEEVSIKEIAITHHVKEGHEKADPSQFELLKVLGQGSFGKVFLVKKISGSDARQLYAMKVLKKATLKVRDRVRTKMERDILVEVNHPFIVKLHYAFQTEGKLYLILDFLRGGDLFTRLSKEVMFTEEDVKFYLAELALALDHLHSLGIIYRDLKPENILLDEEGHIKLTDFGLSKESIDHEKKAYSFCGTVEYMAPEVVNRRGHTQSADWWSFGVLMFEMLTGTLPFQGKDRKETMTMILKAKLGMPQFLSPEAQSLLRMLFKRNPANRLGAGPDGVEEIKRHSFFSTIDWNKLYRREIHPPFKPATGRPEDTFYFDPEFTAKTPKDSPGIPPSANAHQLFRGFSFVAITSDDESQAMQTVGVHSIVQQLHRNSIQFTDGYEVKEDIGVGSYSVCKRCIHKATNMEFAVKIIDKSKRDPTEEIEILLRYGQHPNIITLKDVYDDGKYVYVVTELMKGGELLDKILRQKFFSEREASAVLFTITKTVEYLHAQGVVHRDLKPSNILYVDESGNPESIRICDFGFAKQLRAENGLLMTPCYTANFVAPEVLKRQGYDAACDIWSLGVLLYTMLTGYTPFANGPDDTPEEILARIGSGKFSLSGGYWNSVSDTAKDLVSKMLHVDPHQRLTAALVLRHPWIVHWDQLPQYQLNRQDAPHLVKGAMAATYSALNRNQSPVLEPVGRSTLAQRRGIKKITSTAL

One may read the inhibition as the relative decrease from the control value, in per cent. With `O=C(N[C@@H](C1CC1)C(F)(F)F)c1cc(-c2cnn3cc(-c4ccc(F)cc4)cnc23)cs1`, the inhibition in experiment [1] worked out at 0%; in experiment [2], 20%; in experiment [3], 5%; in experiment [4] it was 0%. Further, the fold change (FC) in [5] amounted to 0.1; in experiment [6] it was 0.

Consider `CNC(=O)c1ccccc1Oc1nc(Nc2cc(OC)c(OC)c(OC)c2)ncc1Br`, for which the inhibition in [7] amounted to 0%. Further, the fold change (FC) in [8] is 0.26.

For the compound `CC(C)[C@H](NC(=O)c1cc(-c2cnn3cc(-c4ccc(OCCN5CCCCC5)cc4)cnc23)cs1)C(F)(F)F`, the inhibition in experiment [9] amounted to 3%; in [10], 0%; in experiment [11] it was 3%. The fold change (FC) in [12] was 0.03.
